# Values quoted from earlier work, collected in article PMC4287963 (Inorganic chemistry, 2009).
# Details: Cu(II) complex of TETA; cited from earlier work
structure (smiles),measurement,value
O=C(O)CN1CCCN(CC(=O)O)CCN(CC(=O)O)CCCN(CC(=O)O)CC1 [TETA],thermodynamic formation constant log K,21.9
